The text below walks through data of a melting point compilation (Tetko et al.; mined from patent text by program, amines drawn as free bases though some values may be those of a salt).

The term melting point denotes the temperature, or range, at which the solid turns liquid. As to `CC(=O)NC(C(=O)OCc1cc(C)cc(C)c1)C1c2ccccc2-c2ccccc21` (stereo not given), the melting point is 162 to 164 °C.
The molecule `COc1cccc(-c2nnc(-c3ccoc3)o2)c1` returned a melting point of 70 to 71 °C.
Turning to `COc1cc(F)c(-c2ccc3nc(C(=O)NC(Cc4ccc(OCc5ccccc5)cc4)C(=O)O)cn3c2)c(F)c1` (stereo not given), the melting point worked out at 219 °C.
With `CCc1cc(Cl)n2nccc2n1`, the melting point is 66 to 68 °C.
`CC(=O)c1cnc(-c2ccccc2)c(-c2ccc(=O)n(C(C)C)n2)c1` returned a melting point of 207 to 208 °C.
The value for `O=C(O)c1cccc2c1CCC2Cl` (stereo not given) was 136 to 138 °C; that for `Cc1cccc(-c2n[nH]cc2-c2ccc(F)c(-c3ccc(N4CCN(C)CC4)nc3)c2)n1` was 86 °C; that for `CC(C)(C)OC(=O)NCCN1CC2CNCC(C1)O2` was 91 to 93 °C.
Consider `CCCCCCCCCCCCCCOc1ccc(C(=O)Nc2cccc(CBr)c2)cc1`, for which the melting point was in the range of 116 to 118 °C.
On to `O=C(CCl)c1ccc2c(c1)CN(C(=O)C(F)(F)F)CC2`, for which the melting point lay in the range of 120 to 122 °C.
Molecule `O=C(NO)c1ccc(CNC(=O)c2[nH]c(-c3ccccc3)cc2-c2ccc(C(F)(F)F)cc2)cc1` had a melting point of 137 to 138 °C.
The molecule `O=C1CCC(c2ccccc2)N1c1ccccc1` (stereo not given) registered a melting point of 106 to 108 °C.
`CCC(C)(NC(=O)c1cc(Cl)cc(Cl)c1)C(=O)CCl` (stereo not given) displayed a melting point of 159 to 161 °C.
Consider `Clc1ccc(CSc2nnc(-c3ccc4occc4c3)o2)cc1`, for which the melting point lay within 162 to 163 °C.
Molecule `COc1ccc(N2CCN(c3nc(NC(C)(C)C(C)(C)C)nc(NC(C)(C)C(C)(C)C)n3)CC2)cc1` had a melting point of 155 to 157 °C.
Molecule `CC(=O)c1ccc(CCOc2ccc(CC3SC(=O)NC3=O)cc2)nc1` (stereo not given) showed a melting point of 114 to 115 °C.
The molecule `Cc1cc(SCc2ccc3cn(-c4ccc(C(F)(F)F)cc4)nc3c2)ccc1OCC(=O)O` displayed a melting point of 142 to 144 °C.
The molecule `O=C(COc1ccc(Cl)cc1)N1CCc2occc2C1CN1CCC(O)C1` (stereo not given) came in with a melting point of 43 to 45 °C.
As for `CC(Cl)(Cl)C(NC(=O)c1ccc(Cl)cc1)NC(=NC#N)Nc1ccc(Cl)nc1` (stereo not given), the figure is 199 to 200 °C; as for `CCC(=O)Nc1cccc(NC(=O)C(C)C)c1`, 174 to 175 °C; as for `CCOC(=O)c1c(CS(=O)c2nccn2C)nc2cc(OC)c(OC)cc2c1-c1ccc(OC)c(OC)c1` (stereo not given), 193 to 194 °C.
The molecule `Clc1cccc(C(c2ccc3[nH]cnc3c2)n2ccnc2)c1` (stereo not given) returned a melting point of 108 °C.
The value for `CCCCCCCCCCCCCCCCCCNC(=O)OCC(CNS(=O)(=O)CCCCl)OC(=O)NC` (stereo not given) was 102 to 104 °C.
The value for `Cc1ccccc1NC(=O)Nc1ccc(N)cc1` was greater than 300 °C; that for `CN1CCCN(C(=O)c2ccc3n2Cc2ccccc2N(C(=O)c2ccc(C4CCCCC4)cc2)C3)CC1` was 133 to 136 °C; that for `COc1ccc(Nc2nc(-c3ccncc3)nc3ccccc23)cc1Cl` was greater than 220 °C.
`COC(=O)CCCCCCCCCCCCc1ccccc1`: the melting point fell in the range of 30.5 to 31.5 °C.
Molecule `[N-]=[N+]=NC(C(=O)O)C1c2ccccc2CCc2ccccc21` (stereo not given) returned a melting point of 101 to 102 °C.
On to `C=CCOc1cc(N)c([N+](=O)[O-])cc1I`, for which the melting point was found to be 74 °C.
`Cc1cc2c(-c3ccccc3)c(CNC(=O)c3cc4ccccc4[nH]3)n(C)c(=O)c2cc1C` displayed a melting point of 303 to 305 °C.
For `Cc1ccc(C(=O)Nc2c(NC(=O)CN3CCN(c4ccccc4)CC3)ccc3c2C(=O)c2ccccc2C3=O)cc1`, the melting point lay within 270 to 271 °C.
As for `O=C1CN(c2cncc(Cl)n2)CCN1`, the figure is 192 to 193 °C.
`CC(C)(C)OC(=O)NCc1ccccc1` showed a melting point of 55.5 to 56.5 °C.
As for `COc1cc2c(cc1Cl)CCOC2c1ccc([N+](=O)[O-])cc1` (stereo not given), the melting point is 150 to 153 °C.
The molecule `O=C(Nc1nc2ccccc2nc1Oc1ccccc1)N1CCN(C(c2ccccc2)c2ccccc2)CC1` returned a melting point of 208 to 210 °C.
In the case of `COC(=O)CCc1cc(O)cc2cc(-c3ccc(O)cc3)oc12`, the melting point is 167 to 170 °C.
The molecule `O=C(COc1ccc(OCc2ccccc2)cc1)NCCCn1ccnc1` showed a melting point of 112 to 113 °C.
Regarding `Cn1nc(-c2cc3c(cc2F)OCC(=O)N3)c(Cl)c1C(F)(F)F`, the melting point was 207 °C.
The value for `O=c1ccccn1[C@@H]1c2cc([N+](=O)[O-])ccc2OC(CF)(CF)[C@H]1O` (relative stereo) was 226 to 228 °C.
The molecule `CC1N=C(c2ccccc2)NC1=O` (stereo not given) had a melting point of 165 °C.
In turn, `CC(OC(=O)c1ccccc1)C(N)=O` (stereo not given) had a melting point of 116 to 117 °C.
`CCOc1cc2ncc(C#N)c(C)c2cc1OCC` returned a melting point of 140 to 145 °C.
Molecule `COc1ccc(-c2cn(-c3cccc(OCCCl)c3)c3ncnc(N)c23)cc1OCc1ccccc1` registered a melting point of 170 °C.
In turn, `COC(CN1CCN(c2ccccc2)CC1)c1ccc(C)nc1` (stereo not given) yielded a melting point of 93 °C.
`COc1ccc(CC(=O)NC(C)(C)C(O)c2ccccc2)cc1OC` (stereo not given) yielded a melting point of 123 to 124 °C.
With `C[C@H](NC(=O)c1c(N)cccc1F)C(=O)O`, the melting point was in the range of 194 to 198 °C.
As for `COc1ccc(CC(NC(c2ccccc2)c2ccccc2)P(O)O)cc1OC` (stereo not given), the figure is 205 °C.
Turning to `O=C(O)c1cc(=O)c2cc(OC(F)(F)F)ccc2o1`, the melting point was 192 to 194 °C.
`CC(C)(C)c1cc(CCc2ccccc2NC(=O)NC2CCN(Cc3ccc(C#N)cc3)CC2)cc(C(C)(C)C)c1O` gave a melting point of 197 to 198 °C.
Take `O=C(O)c1cnn2c(C(F)F)cc(-c3ccc(C(F)(F)F)cc3)nc12`: the melting point amounted to 261 °C.
`COc1ccc(Cl)cc1NC(=O)NCc1ccc2c(c1)CN(C1CCC(=O)NC1=O)C2=O` (stereo not given) had a melting point of 283 to 285 °C.
`CC(C)(C)OC(=O)Nc1cc(N2CCSCC2)c(I)cc1N` registered a melting point of 125 to 127 °C.
The value for `CC1(C)CC(=O)C2=C(C1)NC1=C(C(=O)CC(C)(C)C1)C2c1cc(Cl)cc(Cl)c1` was 288 to 290 °C; that for `CCSc1cc(C#N)c(Cl)cn1` was 103 to 104 °C.
Molecule `Cc1nc2cnccc2n1-c1ccc(C2=Nc3ccccc3N(C)C(=O)C2)cc1` gave a melting point of 147 °C.
The value for `COc1cc(-c2nc3ccc(OCCN(C)C)cc3n2Cc2ccccc2C(F)(F)F)cc(OC)c1OC` was 151 °C.
The value for `C[Si](C)(C)C1=CC(=O)C([Si](C)(C)C)=CC1=O` was 180 °C; that for `COc1nc(C)cc(C)c1C(=O)O` was 210 to 215 °C; that for `Cn1cc(-c2cc3cccnc3[nH]2)c2cc(C(=O)NC(C)(CO)CO)ccc21` was 180 to 182 °C.
Take `CCCCCCCCCCCCCCCCCCCCOC(=O)P(=O)(OC)OC`: the melting point lay within 53 to 54 °C.
As for `CCOC(=O)C1=C(C(F)(F)F)Nc2n[nH]cc2C1c1ccccc1F` (stereo not given), the figure is 119 to 120 °C; as for `CS(=O)(=O)Nc1cc(C(=O)O)c2c(c1)C(C(=O)O)CCN2` (stereo not given), 188 to 190 °C; as for `O=S(=O)(CC1CC=CCO1)c1ccc(Oc2ccc(OC(F)(F)F)cc2)cc1` (stereo not given), 62 to 72 °C.
Regarding `CNC(=O)N1CCc2[nH]cnc2C1c1cccs1` (stereo not given), the melting point is 230 °C.
The value for `COc1c(C)c(C)cc(C)c1C(O)(c1ccc(F)cc1)C(C)C` (stereo not given) was 102 to 103 °C; that for `Cc1cccc2ncc(C(=O)NC3CC3)c(=O)n12` was 174 to 176 °C; that for `O=C(O)Cc1c(C(=O)c2ccc(Cl)cn2)[nH]c2ccc(Cl)cc12` was 259 to 260 °C.
`COc1cc(C)c2cc(C(C)O)ccc2c1C` (stereo not given) gave a melting point of 78 °C.
The value for `Cc1c(F)c(F)c(Cl)c2c1c(=O)c(C(=O)O)cn2-c1cc(N)c(F)cc1F` was 271 to 274 °C.
Regarding `CCOP(=O)(OCC)c1cnn(-c2ccc(Cl)c(Cl)c2Cl)c1N`, the melting point was 114 °C.
The value for `Cc1cc2c(c(C)c1O)C(C)(C)CN2C(=O)C(C)(C)C` was 143 to 144 °C; that for `Cc1oc(-c2ccccc2)nc1CCOc1ccc(CC(Nc2ccccc2C(=O)c2cccc(CO)c2)C(=O)O)cc1` (stereo not given) was 87 to 90 °C; that for `CC(C)n1nc(-c2sc(NC(=O)c3ccc(CCl)cc3)nc2-c2ccccc2)ccc1=O` was greater than 250 °C.
For `O=C(O)CCC1c2ccccc2-c2ccccc21`, the melting point lay within 216 to 217 °C.
In turn, `Cc1ccn(-c2ccc(C(=O)N3Cc4cccn4Cc4ccccc43)c(Cl)n2)n1` displayed a melting point of 171 to 172 °C.
As for `COc1cc(Cl)cc(Cl)c1C=O`, the melting point was in the range of 110 to 111 °C.
As for `CC(=O)OC(c1nc2c(C(F)(F)F)cccc2c(O)c1C(=O)Nc1nccs1)C(C)C` (stereo not given), the figure is 242 °C; as for `Nc1nc(COc2ccc(Cl)cc2)nc2nccnc12`, 246 to 248 °C; as for `CNS(=O)(=O)CCc1ccc(NN=CCCC#N)cc1`, 96 to 97 °C.
As for `Cn1nc(NC(=O)c2ccccc2)c2c(=O)n3c(nc21)SCC3`, the melting point lay within 271 to 272 °C.
As to `O=C1CC2(CCCC2)c2ccc(O)cc21`, the melting point was determined as 145 °C.
Consider `O=c1oc2ccccc2c(O)c1CCCOc1ccccc1`, for which the melting point lay within 125 to 126 °C.
As for `COc1cc(C(=O)C=Cc2ccccc2)ccc1O`, the figure is 61 to 64 °C.
`COc1ccc(S(=O)(=O)CC(O)(CS(=O)(=O)c2ccc(OC)cc2)C(=O)NO)cc1` displayed a melting point of 75 to 80 °C.
As to `COC1=CC2SC2C2(OC)SC12OC` (stereo not given), the melting point lay within 143 to 144 °C.
As to `CCNC(=O)NNC=NC(=O)c1nc(Cl)c(NC(C)C)nc1N`, the melting point fell in the range of 148 to 150 °C.
The molecule `CCCCC(=O)c1oc(=O)[nH]c1C` showed a melting point of 92 to 94 °C.
As for `CCCCOc1ccc(S(=O)(=O)NCCCCOc2ccc(-n3ccnc3)cc2)cc1`, the figure is 103 to 105 °C; as for `NC(=O)C1Cc2c([nH]c3ccccc23)C(c2ccccc2)N1C(=O)CCl` (stereo not given), 180 to 182 °C; as for `CC1=C(S(C)(=O)=O)C(c2ccc(Cl)c([N+](=O)[O-])c2)C2=C(CCC2=O)N1` (stereo not given), 232 °C.
